In article PMC3199943, “Screening the MayBridge Rule of 3 Fragment Library for Compounds That Interact with the Trypanosoma brucei myo-Inositol-3-Phosphate Synthase and/or Show Trypanocidal Activity” (Molecular Biology International, 2011):
Where two headings read alike, the source gives them in different places.

Key:
[1] = biological target: T1, TbINO1 (Trypanosoma brucei brucei, UniProt Q5QQ46); experiment: biochemical; assay type: binding; conditions: for Tb Ino1 Tm Shift [˚C]: Supplementary Table 1, compound 1mM, mean ± SD from Boltzman curve fitting
T1 sequence (Q5QQ46 1-528): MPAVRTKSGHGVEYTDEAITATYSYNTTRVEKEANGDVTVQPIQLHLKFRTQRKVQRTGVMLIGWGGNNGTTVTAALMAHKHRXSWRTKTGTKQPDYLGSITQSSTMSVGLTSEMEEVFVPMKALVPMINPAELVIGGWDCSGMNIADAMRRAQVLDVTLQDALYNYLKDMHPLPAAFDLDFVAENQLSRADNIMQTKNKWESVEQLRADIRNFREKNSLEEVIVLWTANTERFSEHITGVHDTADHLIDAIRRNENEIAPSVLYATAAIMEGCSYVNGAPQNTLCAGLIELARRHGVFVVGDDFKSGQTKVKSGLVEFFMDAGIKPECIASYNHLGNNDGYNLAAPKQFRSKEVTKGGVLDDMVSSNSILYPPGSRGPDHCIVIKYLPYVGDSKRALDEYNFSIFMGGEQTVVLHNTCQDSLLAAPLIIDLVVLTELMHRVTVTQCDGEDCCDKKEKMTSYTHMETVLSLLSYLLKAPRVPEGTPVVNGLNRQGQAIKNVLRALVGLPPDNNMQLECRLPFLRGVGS

[2] = tested on: HeLa cells; experiment: cells; conditions: for viability at 500 µM: 65 h; for HeLa Cells Alamar Blue: Supplementary Table 1, compound 0.5 mM, percentage of controls, mean ± SD (n=3) or SE (n=2)
Summary of the method: (§1)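 Alamar Blue read-out after a 5 h dye incubation that followed ~65 h compound exposure. Cells: HeLa or A549, 2 × 10^4/well, DMEM + 10% FCS + 2 mM L-Glutamine.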

[3] = tested on: A549 cells; experiment: Cytotoxicity against A549 cells, Alamar Blue; assay type: cell-based; conditions: Supplementary Table 1, compound 0.5 mM, percentage of controls (n=1); for viability at 500 µM: Homo sapiens, A549, 65 h
Summary of the method: as §1

[4] = read-out: Tb Ino1 Tm Shift [˚C]
[5] = Homo sapiens, HeLa, read-out: HeLa Cells Alamar Blue
[6] = Homo sapiens, HeLa, read-out: HeLa Cells Alamar Blue (% survival)

Row | SMILES | ΔTm at 1000 µM [1, 4] [°C] | viability at 500 µM [2, 5] [%] | viability at 500 µM [3] [%] | other results
1 | OCc1ccc(-c2ccco2)s1 [compound 458, [5‐(2‐furyl)thien‐2‐yl]methanol] | 0.6 ± 0.02 | 94 ± 12.5 | 73.6 | –
2 | Nc1cc2ccccc2cn1 [compound 153, isoquinolin‐3‐amine] | 0.27 ± 0.06 | 88.5 ± 16.5 | 118 | –
3 | CC1CCN(CC(C)(C)N)CC1 [compound 349, 2‐methyl‐1‐(4‐methylpiperidino)‐2‐propanamine] | – | – | – | Tb Ino1 Tm Shift [˚C] [1]: 0.53 ± 0.06 °C; HeLa Cells Alamar Blue [2]: 108.4 ± 7.2 percentage of controls; A549 Cells Alamar Blue [3]: 144.1 percentage of controls
4 | Nc1cccc(C(=O)c2ccccc2)c1 [compound 601, (3‐aminophenyl)(phenyl)methanone] | 0.21 ± 0.06 | 89.2 ± 6.6 | 63.8 | –
5 | OCc1cccc2c1OCO2 [compound 203, 1,3‐benzodioxol‐4‐ylmethanol] | 0.06 ± 0.08 | 94.6 ± 14.1 | 60.8 | –
6 | CNCc1cccc(-c2ccncc2)c1 [compound 605, N‐methyl‐N‐(3‐pyridin‐4‐ylbenzyl)amine] | 0.05 ± 0.07 | 21.3 ± 13.8 | 36.2 | –
7 | O=C(O)c1ccc(-c2nccs2)cc1 [compound 662, 4‐(1,3‐thiazol‐2‐yl)benzoic acid] | 0.36 ± 0.06 | 102 ± 7.2 | 100 | –
8 | Cn1nc(-c2cccs2)cc1N [compound 450, 1‐methyl‐3‐(2‐thienyl)‐1H‐pyrazol‐5‐amine] | – | – | – | Tb Ino1 Tm Shift [˚C] [1]: 1.1 ± 0.06 °C; HeLa Cells Alamar Blue [2]: 89.3 ± 5.5 percentage of controls; A549 Cells Alamar Blue [3]: 90.7 percentage of controls
9 | CNCc1ccc2c(c1)OCO2 [compound 305, N‐(1,3‐benzodioxol‐5‐ylmethyl)‐N‐methylamine] | – | – | – | Tb Ino1 Tm Shift [˚C] [1]: 1.12 ± 0.05 °C; HeLa Cells Alamar Blue [2]: 56.8 ± 29.4 percentage of controls; A549 Cells Alamar Blue [3]: 58.3 percentage of controls
10 | OCc1ccnc(N2CCCCC2)c1 [compound 568, (2‐piperidinopyrid‐4‐yl)methanol] | 0.03 ± 0.07 | 94.5 ± 18.7 | 103 | –
11 | Cc1cc(CO)c(-c2ccccc2)o1 [compound 522, (5-methyl-2-phenyl-3-furyl)methanol] | – | 24.3 ± 17.4 | 27.1 | ΔTm at 1000 µM ([1]; read-out: TbIno1 Tm shift [°C]): 1.61 ± 0.06 °C; viability at 500 µM [2, 6]: 24.3 ± 17.4%
12 | Cn1c(CN)nc2ccccc21 [compound 281, (1‐methyl‐1H‐benzimidazol‐2‐yl)methylamine] | 0.7 ± 0.04 | 47.6 ± 19.8 | 53.8 | CC50 ([2]; Homo sapiens, HeLa, read-out: HeLa ED50): 659 ± 65 µM
13 | OCc1ccc(N2CCOCC2)s1 [compound 618, (5‐morpholinothien‐2‐yl)methanol] | 1.12 ± 0.11 | 70.4 ± 13.2 | 76.3 | –
14 | Oc1ccc2c(c1)OCO2 [compound 124, 1,3-benzodioxol-5-ol] | – | 39.7 ± 12.5 | 53.6 | ΔTm at 1000 µM ([1]; compound 1 mM, mean ± SD (n = 3), read-out: TbIno1 Tm shift [°C]): 2.1 ± 0.04 °C; viability at 500 µM [2, 6]: 39.7 ± 12.5%
15 | Cc1csc(CC#N)n1 [compound 126, 2-(4-methyl-1,3-thiazol-2-yl)acetonitrile] | – | 69.7 ± 10.3 | 98.4 | ΔTm at 1000 µM ([1]; read-out: TbIno1 Tm shift [°C]): 2.1 ± 0.09 °C; viability at 500 µM [2, 6]: 69.7 ± 10.3%
16 | N#Cc1scc2c1OCCO2 [compound 327, 2,3‐dihydrothieno[3,4‐b][1,4]dioxine‐5‐carbonitrile] | – | – | – | Tb Ino1 Tm Shift [˚C] [1]: 0.12 ± 0.06 °C; HeLa Cells Alamar Blue [2]: 115.5 ± 14.4 percentage of controls; A549 Cells Alamar Blue [3]: 121.1 percentage of controls
17 | OCc1ccccc1-n1cccc1 [compound 371, [2‐(1H‐pyrrol‐1‐yl)phenyl]methanol] | 0.36 ± 0.07 | 88.5 ± 6.4 | 87.3 | –
18 | O=C(O)c1ccc2ncccc2c1 [compound 370, quinoline‐6‐carboxylic acid] | 0.57 ± 0.04 | 109 ± 13.1 | 152 | –
